Reference: article PMC6855259, “Acylation-coupled lipophilic induction of polarisation (Acyl-cLIP): a universal assay for lipid transferase and hydrolase enzymes” (Chemical Science, 2019)
Where a name gives a salt, the structure may show the parent alone. Blank lines part the entries; values can stand above or below the compound they belong to.

Assays:
[1] = biological target: BSA; set-up: method as in PMID 11964183; details: read-out: Kd of BSA for palmitic acid; cited from earlier work
[2] = system: HEK-293 SHH+ cells; assay: MTS viability assay; assay type: cell-based, human; details: 72 h, inhibitors 0.14-100 µM
Protocol: (§1) washed twice with methanol, briefly air-dried and re-dissolved in PBS containing SDS (0.2% (w/v)) and DTT (0.1 mM) using sonication to a final concentration of 1 mg/mL.
(§2) 10 µg of protein were separated on a 15% SDS-polyacrylamide gel. Fluorescence was recorded using a Typhoon imager (GE Healthcare; excitation laser: 532 nm, emission filter:
Proteins were transferred to a nitrocellulose membrane by wet transfer (100 V, 1 h), and membranes blocked with BSA (5% (w/v)) in TBS-T (50 mM TRIS, 150 mM NaCl, 0.1% Tween-20, pH 7.5) for 1 h at RT, followed by overnight incubation at 4°C with rabbit α-SHH (Santa Cruz Biotechnology; sc-9024; 1:200) in TBS-T with BSA (0.5% (w/v)) or mouse α-Tubulin (Santa Cruz Biotechnology; sc-8035; 1:200) in TBS-T with BSA (0.5% (w/v)). Membranes were washed with TBS-T (4 × 5 min) and incubated at RT for 1 h with HRP-conjugated Goat-α-mouse IgG (Advansta; 1:10,000) in TBS-T with BSA (0.5% (w/v)) or Goat-α-rabbit IgG (Advansta; 1:10,000) in TBS-T with BSA (0.5% (w/v)). […] YnC15-labelled SHH band intensities were quantified using ImageJ 1.50i (National Institute of Health, USA).
HEK293a SHH+ cells (5,000 cells/well) were plated in a 96-well plate in DMEM/FBS (50 µL/well) and cultured for 24 h. […] The absorption at 490 nm was recorded using an EnVision Xcite 2104 and responses normalised to vehicle control and background corrected to Puromycin-treated samples.

[3] = system: HH signalling in SHH-Light2 cells; assay: SHH-Light2 signalling assay (Firefly luciferase); assay type: cell-based; details: inhibitors 0.041-30 µM
Protocol: (§3) SHH-Light2 Signalling Assay
(§4) HEK293a SHH+ cells (120,000 cells/well) were plated in a 12-well cell culture treated plate (Nunc) in DMEM/FBS (1 mL/well) and cultured for 24 h. Cells were washed with PBS, followed by the addition of DMEM/FBS (1 mL) containing DMSO (0.2%) or varying inhibitor concentrations in DMSO (0.041-30 µM). SHH-Light2 cells (20,000 cells/well) were plated in a 96-well plate in DMEM/FCS (50 µL/well). After 24 h, conditioned medium (300 µL) was removed from each well of the HEK293a SHH+ cells, centrifuged (1,000 g, 10 min), and added to three wells of SHH-Light2 cells (100 µL/well, 150 µL final volume). SHH-Light2 cells were cultured for a further 48 h, and washed with PBS prior to analysis. Firefly and Renilla luciferase activity was recorded using the Dual-Luciferase reporter system (Promega Corporation, USA).
(§5) Passive lysis buffer (20 µL) was added to each well and cells incubated for 30 min at RT. The lysate (5 µL) was transferred to a white opaque 96-well plate (Corning, 3362). Luciferase Assay Reagent II (20 µL/well) was added and the luminescence immediately recorded using a SpectraMax i3x spectrophotometer (Molecular Devices LLC). Stop&Glo (1x) substrate in Stop&Glo buffer (20 µL/well) was added and the luminescence immediately recorded. […]

[4] = system: SHH acylation in HEK-293 SHH+ cells; assay: In-cell YnC15 tagging assay of SHH acylation; assay type: cell-based, human; details: inhibitors 20 µM, YnC15, AzTB ligation; for inhibition of SHH acylation (YnC15 tagging) by in-gel fluorescence: IGF; for inhibition of SHH acylation assessed by increased molecular weight in anti-SHH blotting: α-SHH western blot
Protocol: In-Cell YnC15 Tagging Assay
HEK293a SHH+ cells (500,000 cells/well) were plated in a 6-well plate in DMEM/FBS (3 mL/well) and cultured for 24 h. Cells were treated with inhibitors in DMSO (20 µM), two RUSKI-201 (20 µM) blind-positive controls and two DMSO (7.5 µL) blind-negative controls.
After 1 h, YnC15 (3 µL, 20 mM in DMSO) was added and cells cultured for a further 6 h before washing with PBS. Cells were lysed in PBS with Triton X-100 (1%), SDS (0.1% (w/v)) and Complete EDTA-free protease inhibitor cocktail (Roche Diagnostics). Cells were removed from plates by scraping, and lysates centrifuged (13,000 g, 10 min, 4 °C). The protein concentration of the supernatant was estimated using the DC Protein Assay (Bio-Rad) and adjusted to 1 mg/mL with lysis buffer. AzTB (1 µL, 10 mM in DMSO), CuSO4 (2 µL, 50 mM in H2O), TCEP (2 µL, 50 mM in H2O) and TBTA (1 µL, 10 mM in DMSO) were combined, and this mixture (6 µL) added to the lysate (100 µL). Samples were shaken at RT for 1 h, then proteins precipitated by addition of methanol (200 µL), chloroform (50 µL) and water (100 µL) followed by centrifugation (13,000 g, 5 min, 4 °C). The upper aqueous layer was removed without disturbing the protein layer at the interphase, methanol (0.5 mL) was added, and the precipitated proteins isolated by centrifugation (13,000 g, 10 min, 4 °C). Protein pellets were […]
as §1, §2
Proteins were transferred to a nitrocellulose membrane by wet transfer (100 V, 1 h), and membranes blocked with BSA (5% (w/v)) in TBS-T (50 mM TRIS, 150 mM NaCl, 0.1% Tween-20, pH 7.5) for 1 h at RT, followed by overnight incubation at 4°C with rabbit α-SHH (Santa Cruz Biotechnology; sc-9024; 1:200) in TBS-T with BSA (0.5% (w/v)) or mouse α-Tubulin (Santa Cruz Biotechnology; sc-8035; 1:200) in TBS-T with BSA (0.5% (w/v)). Membranes were washed with TBS-T (4 × 5 min) and incubated at RT for 1 h with HRP-conjugated Goat-α-mouse IgG (Advansta; 1:10,000) in TBS-T with BSA (0.5% (w/v)) or Goat-α-rabbit IgG (Advansta; 1:10,000) in TBS-T with BSA (0.5% (w/v)). Membranes were washed with TBS-T (4 × 5 min) and developed with Luminata Crescendo Western HRP substrate (Millipore) on a Fujifilm LAS-3000 imager. YnC15-labelled SHH band intensities were quantified using ImageJ 1.50i (National Institute of Health, USA).
HEK293a SHH+ cells (5,000 cells/well) were plated in a 96-well plate in DMEM/FBS […]
(50 µL/well) and cultured for 24 h. […]

[5] = biological target: T1, HHAT (Homo sapiens, UniProt Q5VTY9); assay: Pilot HTS Acyl-cLIP screen of FDA-approved drugs, purified HHAT, stopped-assay conditions; assay type: biochemical; details: compounds screened at 25 μM
T1 construct: FLAG (C); His (C); made in house; host or cells: HEK293a cells stably overexpressing HHAT-FLAG-His
T1 sequence (Q5VTY9 whole entry): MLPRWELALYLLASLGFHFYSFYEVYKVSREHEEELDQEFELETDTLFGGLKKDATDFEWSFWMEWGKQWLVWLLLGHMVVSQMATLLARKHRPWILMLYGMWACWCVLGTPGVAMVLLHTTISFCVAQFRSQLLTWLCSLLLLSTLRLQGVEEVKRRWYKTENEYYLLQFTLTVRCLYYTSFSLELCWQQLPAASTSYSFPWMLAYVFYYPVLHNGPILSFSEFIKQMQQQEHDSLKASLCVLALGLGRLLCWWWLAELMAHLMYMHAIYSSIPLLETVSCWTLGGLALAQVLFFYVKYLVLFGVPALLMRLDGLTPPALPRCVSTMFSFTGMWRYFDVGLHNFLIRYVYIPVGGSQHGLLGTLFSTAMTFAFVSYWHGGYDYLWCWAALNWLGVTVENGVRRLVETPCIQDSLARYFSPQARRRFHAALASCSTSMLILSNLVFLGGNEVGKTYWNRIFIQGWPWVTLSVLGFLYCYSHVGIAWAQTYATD

[6] = system: SHH-Light2 cells; assay: Constitutive Renilla luciferase control for cellular viability in SHH-Light2 assay; assay type: cell-based
Protocol: as §3, §4, §5

[7] = Detergent/BSA titration for polarised emission of Pal-SHH-FAM (fluorescence anisotropy); details: titration with Pal-SHH-FAM; read-out: detergent concentration required for half-maximal polarised signal (EC50)
Protocol: Fluorescence measurements were recorded on an EnVision Xcite 2104 (PerkinElmer).
FAM-labelled peptides were measured using a FITC FP D505fp mirror module, FITC FP 480 nm excitation filter (30 nm bandwidth), FITC FP P-pol 535 nm first emission filter (40 nm bandwidth), and FITC FP S-pol 535 nm second emission filter (40 nm bandwidth). Continuous reaction monitoring was conducted using measurement height = 9.52 mm, 8 flashes/well, PMT gain = 319, and G-factor = 1.09.
TAMRA-labelled peptides were measured using a BODIPY TMR FP D555fp mirror module, BODIPY TMR FP 531 nm excitation filter (25 nm bandwidth), BODIPY TMR FP P-pol 579 nm first emission filter (25 nm bandwidth), and BODIPY TMR FP S-pol 579 nm second emission filter (25 nm bandwidth). Continuous reaction monitoring was conducted using measurement height = 6.5 mm, 200 flashes/well, PMT gain = 255, and G-factor = 1.6.
Detergents (2 mM) or BSA (0.15 mM) were tested for generation of polarised fluorescence from Pal-SHH-FAM or SHH-FAM (0.1 µM) in 100 mM MES, 20 mM NaCl. Detergent and BSA titrations were performed using 2-fold serial dilutions.

[8] = cited from earlier work

Compound: CCCCCCCCCCCCCCCC(=O)O [palmitic acid]
Kd [1]: 0.104 µM

Compound: CN(C)CCCN1c2ccccc2CCc2ccc(Cl)cc21 [Clomipramine·HCl]
viability in MTS assay ([2]; listed as Clomipramine): cytotoxicity
viability in MTS assay ([2]; listed as clomipramine): decreased viability at high concentrations
concentration at which HH signalling is inhibited ([3]; listed as Clomipramine): 30 µM
concentration at which HH signalling is inhibited ([3]; listed as clomipramine): > 30 µM
inhibition of SHH acylation (YnC15 tagging) by in-gel fluorescence ([4]; listed as Clomipramine): inhibition
inhibition of SHH acylation (YnC15 tagging) by in-gel fluorescence ([4]; listed as clomipramine): showed inhibition of SHH acylation
inhibition of SHH acylation assessed by increased molecular weight in anti-SHH blotting [4]: did not show inhibition of SHH acylation

Compound: CC(C)C[C@H]1C(=O)N2CCC[C@H]2[C@]2(O)O[C@](NC(=O)[C@@H]3C=C4c5cccc6[nH]c(Br)c(c56)C[C@H]4N(C)C3)(C(C)C)C(=O)N12 [Bromocriptine Mesylate]
inhibition at 25 µM [5]: > 80%
cytotoxicity in SHH-Light2 signalling assay [6]: general cytotoxicity
inhibition of SHH acylation (YnC15 tagging) by in-gel fluorescence ([4]; listed as Bromocriptine): inhibition
inhibition of SHH acylation (YnC15 tagging) by in-gel fluorescence ([4]; listed as bromocriptine): showed inhibition of SHH acylation
inhibition of SHH acylation assessed by increased molecular weight in anti-SHH blotting [4]: did not show inhibition of SHH acylation

EC50 [7]: 150 µM
Compound: CCCCCCCCCCCCO[C@@H]1O[C@H](CO)[C@@H](O[C@H]2O[C@H](CO)[C@@H](O)[C@H](O)[C@H]2O)[C@H](O)[C@H]1O [DDM, n-dodecyl β-D-maltoside]
critical micelle concentration (CMC) [8]: 170 µM

EC50 [7]: 180 µM
Compound: Triton™ X-100 [TX-100]
critical micelle concentration (CMC) [8]: 200 µM
